# Earlier results as cited in patent US11980686B1, “Agomelatine oral transmucosal film” (Xiamen LP Pharmaceutical Co., Ltd., priority 2023, dated 2024).
# Settings: oral tablet
structure (smiles),measurement,value
"COc1ccc2cccc(CCNC(C)=O)c2c1 [agomelatine, Agomelatine]",Inter-individual variation (AUC),104%
same,Intra-subject variation (AUC),157%
